29 compounds from patent US11446287B2, “Compounds and methods for EP300 or CBP modulation and indications therefor” (Opna Immuno-Oncology SA, priority 2019, dated 2022) can be followed below.

Each structure is given as a SMILES string.

For this assay, the target named is T1, Recombinant human CBP containing the bromodomain (CBP-BD (1043-1159)) (Homo sapiens, UniProt Q92793).
T1 construct: Recombinant human CBP bromodomain (CBP-BD (1043-1159)); made in house; host or cells: E. coli BL21-CodonPlus (DE3), modified pET vector
T1 sequence (Q92793 1081-1197): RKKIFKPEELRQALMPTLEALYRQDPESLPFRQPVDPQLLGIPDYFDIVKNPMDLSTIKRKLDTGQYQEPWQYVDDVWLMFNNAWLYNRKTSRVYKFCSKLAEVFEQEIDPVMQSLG
Put plainly: CBP Alphascreen binding assay. The conditions noted are these: read-out: CREBBP (CBP) IC50. In outline:
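Buffer: 50 mM HEPES pH 7.5, 50 mM NaCl, 0.01% BSA, 0.01% Triton X-100, 2 mM DTT. The signal was normalised to plate controls and fitted with a four-parameter curve to give IC50.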
Regarding `CCc1noc(C)c1-c1cnc2c(c1)c(-c1ccc(C(=O)O)cc1OC(F)(F)F)cn2C1CCOCC1` [P-0400, 4-(5-(3-ethyl-5-methylisoxazol-4-yl)-1-(tetrahydro-2H-pyran-4-yl)-1H-pyrrolo[2,3-b]pyridin-3-yl)-3-(trifluoromethoxy)benzoic acid], the IC50 – broadly, the concentration needed to halve the response being measured – lay within 0.1 to 1000 nM. The result for `CCc1onc(C)c1-c1cnc2c(c1)c(-c1ccc(C(=O)O)cc1OC(F)(F)F)cn2C1CCOCC1` [P-0401, 4-(5-(5-ethyl-3-methylisoxazol-4-yl)-1-(tetrahydro-2H-pyran-4-yl)-1H-pyrrolo[2,3-b]pyridin-3-yl)-3-(trifluoromethoxy)benzoic acid] reads 0.1 to 1000 nM; that for `Cc1cc(C(=O)O)cc(OC(C)C)c1-c1cn(C2CCOCC2)c2ncc(-c3c(C)noc3C)cc12` [P-0402, 4-(5-(3,5-dimethylisoxazol-4-yl)-1-(tetrahydro-2H-pyran-4-yl)-1H-pyrrolo[2,3-b]pyridin-3-yl)-3-isopropoxy-5-methylbenzoic acid], 0.1 to 1000 nM. The figure for `Cc1noc(C)c1-c1cnc2c(c1)c(-c1ccc(C(=O)O)cc1OC(C)C)cn2C1(C)CCOCC1` [P-0403, 4-(5-(3,5-dimethylisoxazol-4-yl)-1-(4-methyltetrahydro-2H-pyran-4-yl)-1H-pyrrolo[2,3-b]pyridin-3-yl)-3-isopropoxybenzoic acid] is 0.1 to 1000 nM; for `Cc1noc(C)c1-c1cnc2c(c1)c(-c1c(Cl)cc(C(=O)O)cc1OC(C)C)cn2C1(C)CCOCC1` [P-0404, 3-chloro-4-(5-(3,5-dimethylisoxazol-4-yl)-1-(4-methyltetrahydro-2H-pyran-4-yl)-1H-pyrrolo[2,3-b]pyridin-3-yl)-5-isopropoxybenzoic acid] it is 0.1 to 1000 nM; for `CCOc1nc(C(=O)O)ccc1-c1cn(C2(C)CCOCC2)c2ncc(-c3c(C)noc3C)cc12` [P-0405, 5-(5-(3,5-dimethylisoxazol-4-yl)-1-(4-methyltetrahydro-2H-pyran-4-yl)-1H-pyrrolo[2,3-b]pyridin-3-yl)-6-ethoxypicolinic acid] it is 0.1 to 1000 nM. The figure for `CCOc1nc(C(=O)O)c(Cl)cc1-c1cn([C@H]2CCOC2)c2ncc(-c3c(C)noc3C)cc12` [P-0406, (S)-3-chloro-5-(5-(3,5-dimethylisoxazol-4-yl)-1-(tetrahydrofuran-3-yl)-1H-pyrrolo[2,3-b]pyridin-3-yl)-6-ethoxypicolinic acid] is 0.1 to 1000 nM; for `Cc1noc(C)c1-c1cnc2c(c1)c(-c1ccc(C(=O)O)cc1OC(C)C)cn2C1(C)CCOC1` (centres unmarked) [P-0407, 4-(5-(3,5-dimethylisoxazol-4-yl)-1-(3-methyltetrahydrofuran-3-yl)-1H-pyrrolo[2,3-b]pyridin-3-yl)-3-isopropoxybenzoic acid] it is 0.1 to 1000 nM. Regarding `Cc1noc(C)c1-c1cnc2c(c1)c(-c1c(Cl)cc(C(=O)O)cc1OC(C)C)cn2C1(C)CCOC1` (centres unmarked) [P-0408, 3-chloro-4-(5-(3,5-dimethylisoxazol-4-yl)-1-(3-methyltetrahydrofuran-3-yl)-1H-pyrrolo[2,3-b]pyridin-3-yl)-5-isopropoxybenzoic acid], the half-inhibitory concentration (IC50) lay in the range of 0.1 to 1000 nM. For the compound `Cc1noc(C)c1-c1cnc2c(c1)c(-c1c(Cl)cc(C(=O)O)cc1OC1CC1)cn2-c1ncccc1C#N` [P-0409, 3-chloro-4-(1-(3-cyanopyridin-2-yl)-5-(3,5-dimethylisoxazol-4-yl)-1H-pyrrolo[2,3-b]pyridin-3-yl)-5-cyclopropoxybenzoic acid], the half-maximal inhibitory concentration (IC50) lay in the range of 0.1 to 1000 nM. For the compound `Cc1noc(C)c1-c1cnc2c(c1)c(-c1c(F)cc(C(=O)O)cc1OC1CCC1)cn2C1CCOCC1` [P-0410, 3-cyclobutoxy-4-(5-(3,5-dimethylisoxazol-4-yl)-1-(tetrahydro-2H-pyran-4-yl)-1H-pyrrolo[2,3-b]pyridin-3-yl)-5-fluorobenzoic acid], the IC50 fell in the range of 0.1 to 1000 nM. The result for `CCOc1nc(C(=O)O)cc(C)c1-c1cn(C2CCOCC2)c2ncc(-c3c(C)noc3C)cc12` [P-0411, 5-(5-(3,5-dimethylisoxazol-4-yl)-1-(tetrahydro-2H-pyran-4-yl)-1H-pyrrolo[2,3-b]pyridin-3-yl)-6-ethoxy-4-methylpicolinic acid] reads 0.1 to 1000 nM; that for `CCOc1nc(C(=O)O)cc(C)c1-c1cn(-c2ccc(F)cc2F)c2ncc(-c3c(C)noc3C)cc12` [P-0412, 5-(1-(2,4-difluorophenyl)-5-(3,5-dimethylisoxazol-4-yl)-1H-pyrrolo[2,3-b]pyridin-3-yl)-6-ethoxy-4-methylpicolinic acid], 0.1 to 1000 nM. Turning to `Cc1nnn(C)c1-c1cnc2c(c1)c(-c1ccc(C(=O)O)cc1OC1CC1)cn2C1CCOCC1` [P-0413, 3-cyclopropoxy-4-(5-(1,4-dimethyl-1H-1,2,3-triazol-5-yl)-1-(tetrahydro-2H-pyran-4-yl)-1H-pyrrolo[2,3-b]pyridin-3-yl)benzoic acid], the half-maximal inhibitory concentration (IC50) fell in the range of 0.1 to 1000 nM. The figure for `CCOc1cc(C(=O)O)nc(OCC)c1-c1cn(-c2ccccc2F)c2ncc(-c3c(C)noc3C)cc12` [P-0414, 5-(5-(3,5-dimethylisoxazol-4-yl)-1-(2-fluorophenyl)-1H-pyrrolo[2,3-b]pyridin-3-yl)-4,6-diethoxypicolinic acid] is 0.1 to 1000 nM; for `CCOc1cc(C(=O)O)nc(OCC)c1-c1cn([C@@H](C)c2ccccn2)c2ncc(-c3c(C)noc3C)cc12` [P-0415, (S)-5-(5-(3,5-dimethylisoxazol-4-yl)-1-(1-(pyridin-2-yl)ethyl)-1H-pyrrolo[2,3-b]pyridin-3-yl)-4,6-diethoxypicolinic acid] it is 0.1 to 1000 nM; for `CCOc1nc(C(=O)O)c(C)cc1-c1cn(C(C2CC2)C2CC2)c2ncc(-c3c(C)noc3C)cc12` [P-0416, 5-(1-(dicyclopropylmethyl)-5-(3,5-dimethylisoxazol-4-yl)-1H-pyrrolo[2,3-b]pyridin-3-yl)-6-ethoxy-3-methylpicolinic acid] it is 0.1 to 1000 nM. The result for `CCOc1nc(C(=O)O)cc(C)c1-c1cn(C(C2CC2)C2CC2)c2ncc(-c3c(C)noc3C)cc12` [P-0417, 5-(1-(dicyclopropylmethyl)-5-(3,5-dimethylisoxazol-4-yl)-1H-pyrrolo[2,3-b]pyridin-3-yl)-6-ethoxy-4-methylpicolinic acid] reads 0.1 to 1000 nM; that for `Cc1noc(C)c1-c1cnc2c(c1)c(-c1ccnc(C(=O)O)c1C)cn2C(C1CC1)C1CC1` [P-0418, 4-(1-(dicyclopropylmethyl)-5-(3,5-dimethylisoxazol-4-yl)-1H-pyrrolo[2,3-b]pyridin-3-yl)-3-methylpicolinic acid], 0.1 to 1000 nM; that for `Cc1noc(C)c1-c1cnc2c(c1)c(-c1ccnc(C(=O)O)c1C)cn2C1CCOCC1` [P-0419, 4-(5-(3,5-dimethylisoxazol-4-yl)-1-(tetrahydro-2H-pyran-4-yl)-1H-pyrrolo[2,3-b]pyridin-3-yl)-3-methylpicolinic acid], 0.1 to 1000 nM. The figure for `CCOc1cc(C(=O)O)nc(OCC)c1-c1cn(C(C2CC2)C2CC2)c2ncc(-c3c(C)noc3C)cc12` [P-0420, 5-(1-(dicyclopropylmethyl)-5-(3,5-dimethylisoxazol-4-yl)-1H-pyrrolo[2,3-b]pyridin-3-yl)-4,6-diethoxypicolinic acid] is 0.1 to 1000 nM; for `CCOc1cc(C(=O)O)nc(OCC)c1-c1cn(-c2ncccc2C#N)c2ncc(-c3c(C)noc3C)cc12` [P-0421, 5-(1-(3-cyanopyridin-2-yl)-5-(3,5-dimethylisoxazol-4-yl)-1H-pyrrolo[2,3-b]pyridin-3-yl)-4,6-diethoxypicolinic acid] it is 0.1 to 1000 nM. Consider `CCOc1cc(C(=O)O)nc(OCC)c1-c1cn(-c2ncccc2C(N)=O)c2ncc(-c3c(C)noc3C)cc12` [P-0422, 5-(1-(3-carbamoylpyridin-2-yl)-5-(3,5-dimethylisoxazol-4-yl)-1H-pyrrolo[2,3-b]pyridin-3-yl)-4,6-diethoxypicolinic acid], for which the half-inhibitory concentration (IC50) lay within 0.1 to 1000 nM. Turning to `CCOc1cc(C(=O)O)nc(OCC)c1-c1cn(-c2ccc(C#N)cc2F)c2ncc(-c3c(C)noc3C)cc12` [P-0423, 5-(1-(4-cyano-2-fluorophenyl)-5-(3,5-dimethylisoxazol-4-yl)-1H-pyrrolo[2,3-b]pyridin-3-yl)-4,6-diethoxypicolinic acid], the IC50 lay within 0.1 to 1000 nM. The result for `CCOc1cc(C(=O)O)nc(OCC)c1-c1cn(-c2cnc(C3CC3)nc2)c2ncc(-c3c(C)noc3C)cc12` [P-0424, 5-(1-(2-cyclopropylpyrimidin-5-yl)-5-(3,5-dimethylisoxazol-4-yl)-1H-pyrrolo[2,3-b]pyridin-3-yl)-4,6-diethoxypicolinic acid] reads 0.1 to 1000 nM; that for `CCOc1cc(C(=O)O)nc(OCC)c1-c1cn(C2CCC(F)(F)CC2)c2ncc(-c3c(C)noc3C)cc12` [P-0425, 5-(1-(4,4-difluorocyclohexyl)-5-(3,5-dimethylisoxazol-4-yl)-1H-pyrrolo[2,3-b]pyridin-3-yl)-4,6-diethoxypicolinic acid], 0.1 to 1000 nM. The result for `CCOc1cc(C(=O)O)ncc1-c1cn(C(C2CC2)C2CC2)c2ncc(-c3c(C)noc3C)cc12` [P-0427, 5-(1-(dicyclopropylmethyl)-5-(3,5-dimethylisoxazol-4-yl)-1H-pyrrolo[2,3-b]pyridin-3-yl)-4-ethoxypicolinic acid] reads 0.1 to 1000 nM. `CCOc1cc(C(=O)O)ncc1-c1cn(C2CCOCC2)c2ncc(-c3c(C)noc3C)cc12` [P-0428, 5-(5-(3,5-dimethylisoxazol-4-yl)-1-(tetrahydro-2H-pyran-4-yl)-1H-pyrrolo[2,3-b]pyridin-3-yl)-4-ethoxypicolinic acid]: the IC50 lay within 0.1 to 1000 nM. The result for `CCOc1cc(C(=O)O)nc(OCC)c1-c1cn(-c2cn(C(F)F)nc2C)c2ncc(-c3c(C)noc3C)cc12` [P-0429, 5-(1-(1-(difluoromethyl)-3-methyl-1H-pyrazol-4-yl)-5-(3,5-dimethylisoxazol-4-yl)-1H-pyrrolo[2,3-b]pyridin-3-yl)-4,6-diethoxypicolinic acid] reads 0.1 to 1000 nM.
